In article PMC9166630, “SAR Probing of KX2-391 Provided Analogues With Juxtaposed Activity Profile Against Major Oncogenic Kinases” (Frontiers in Oncology, 2022):
Converted amounts (≈) assume the structure as drawn. Like-named read-outs stand apart in the source and are kept apart here.

Tests used:
[1] = Maximum kinetic aqueous solubility; format: physicochemical; details: 2% DMSO/PBS, pH 7.4, read-out: Max. aq. Sol.
Experimental: Solubility assays were performed using Millipore MultiScreen® HTS-PFC Filter Plates designed for solubility assays (EMD Millipore, Billerica, MA). Assays were run in triplicate. The 96-well plates consist of two chambers separated by a filter. Liquid handling was performed using JANUS® Verispan and MTD workstations (Perkin Elmer, Waltham, MA). 4 µL of 4e or 4n solution (10 mM in DMSO) was added to 196 µL of phosphate buffer (45 mM potassium phosphate, 45 mM sodium acetate, 45 mM ethanolamine, pH = 7.4) in the top chamber to give a final DMSO concentration of 2% and a theoretical drug concentration of 200 µM. Plates were gently shaken for 90 min and then subjected to vacuum. Insoluble drug is captured on the filter. 160 µL of the filtrate is transferred to 96-well Griener UV Star® analysis plates (Sigma–Aldrich, St. Louis, MO) containing 40 µL of acetonitrile. The test compound concentration in the filtrate is measured by UV absorbance on a Spectromax® Plus microplate reader (Molecular Devices, Sunnyvale, CA) using Softmax Pro software v.5.4.5. Absorbances at 5 wavelengths (280, 300, 320, 340, and 360 nm) were summed to generate the UV signal. Standard curves were generated by adding 4 µL of five concentrations of test compound in DMSO to 40 µL of acetonitrile in UV Star plates followed by 156 µL of the appropriate solubility medium. Analysis and statistics were performed using GraphPad® Prism v.5.04. Data were reported as the maximum concentration observed in the filtrate.

[2] = test system: MCF7 (breast) cancer cells; experiment: SRB cytotoxicity assay, MCF7; format: cell-based, human; details: Homo sapiens, MCF7, 72 h, maximum tested concentration 50 µM, read-out: IC50 ± SEM, MCF7
Experimental: MCF7 (breast) or N87 (stomach) cancer cells were grown in Roswell Park Memorial Institute-1640 (RPMI-1640) medium (Thermo Fisher Scientific, Inc; Waltham, MA, USA), supplemented with 10% heat inactivated fetal bovine serum (FBS), 50 units/mL of penicillin and […] of streptomycin and maintained at 37°C in a humidified atmosphere containing 5% CO2. The cells were maintained as “monolayer culture” by serial subculturing.
Cytotoxicity was determined using Sulforhodamine B (SRB) method as previously described by Skehan et al. ([66]). Exponentially growing MCF7 and N87 cells were collected using 0.25% Trypsin-EDTA and were then seeded in 96-well plates at a density of 1000-2000 cells/well in 10% FBS and penicillin/streptomycin supplemented RPMI-1640 medium. After 24 h, cells were treated with different concentrations of test compounds and incubated for 72 h at 37°C in a humidified atmosphere containing 5% CO2. Next, the cells were fixed by adding trichloroacetic acid (TCA, 10% final conc. in wells) directly to the wells and incubated for 1 h at 4°C, then cells were washed with distilled water 5 times to remove excess TCA, media, serum proteins, and metabolites, followed by air drying. After that, the fixed cells were stained with 0.4% SRB dissolved in 1% acetic acid for 10 min at room temperature, and excess stain was removed by quickly rinsing with 1% acetic acid. The residual acetic acid was removed completely by air drying the plates for 24 h, and the dye was solubilized with Tris buffer (pH= 7.4, 10 mM) for 5 min on a shaker at 1600 rpm. The optical density (OD) of each well was measured spectrophotometrically at 564 nm with an ELISA microplate reader (ChroMate-4300, FL, USA). The IC50 values (concentration of drug resulting in 50% reduction in cell survival) were calculated according to the equation for Boltzman sigmoidal concentration–response curve using the nonlinear regression fitting models (Graph Pad, Prism Version 5).

[3] = test system: human skin fibroblasts (HSF); experiment: Normal cell line assay; format: cell-based; details: Skin fibroblast
Experimental: In addition to having a good physicochemical profile, it is important for a studied lead to differentiate between cancer cells and highly proliferating non-cancerous cells. Therefore, we assessed compounds 4e and 4n for both the in silico and in vitro physicochemical characteristics as well as for cytotoxic effect on human skin fibroblasts (HSF) cell lines.
The effect of the two compounds was evaluated for their effect on the growth and proliferation human skin fibroblasts (HSF) as an example of non-cancerous cell lines.

[4] = Binding to mouse plasma proteins (equilibrium dialysis); format: in vitro ADME; details: 10 µM, 37°C, 22 h dialysis
Experimental: The equilibrium dialysis method for determining plasma protein binding was performed as previously described using 96-well dialyzer plates with molecular weight cutoff of 5K (Harvard Aparatus, Holliston, MA) and a dual-plate rotator set to maximum speed (Harvard Aparatus, Holliston, MA) located in a 37°C incubator with a 10% CO2-atmospheric environment. Assays were run in triplicate. The test compounds were added to CD-1 mouse plasma (Innovative Research, Novi, MI, sodium heparin added as anticoagulant; pH adjusted to 7.4 with 2N HCl on day of use) in DMSO (final DMSO concentration 0.4%) to give 10 µM final concentration. Drug/plasma mixture and buffer (Dulbecco’s phosphate-buffered saline 1X without calcium and magnesium, Mediatech, Inc., Herndon, VA) were placed in their respective sides, wells were capped, and the plate was placed in the rotator and allowed to dialyze for 22 h. Following dialysis, aliquots of buffer and plasma mixture were removed and mixed with aliquots of the opposite matrix in 96-well deep plates. Concentrations of analytes from each side of the dialysis plate were determined by LC/MS/MS on a Waters Xevo TQ instrument as described above using positive electrospray ionization. […] The fraction unbound was calculated by dividing the drug concentration in the buffer side of the dialysis plate by the drug concentration in the plasma side.

[5] = Stability in mouse liver microsomes; format: in vitro ADME; details: for half-life: male, CD-1, mouse liver microsomes with NADPH, 37°C, read-out: Stability MLM t1/2; for Mic. Ctrl. Mouse % 60 min: mouse liver microsomes, no NADPH added
Experimental: Both mouse and human liver microsomes were obtained from Merck KGaA, (Darmstadt, Germany), Cat. No. M9441 (Mouse liver microsomes) and M0317 (Human liver microsomes). Assays were conducted in triplicate in 96-deep well polypropylene plates. […] At five time points, reaction mixture aliquots were transferred to 96-shallow well stop plates on ice containing acetonitrile with 0.1 µM propafenone. […] Standard curves for test compound were generated using 5 concentrations in triplicate that were processed as above but with zero incubation time. Stop plates were centrifuged at 2000 g for 10 min and then supernatant aliquots were transferred to a Waters Aquity® UPLC 700 µL 96-well sample plate with cap mat (Waters, Milford, MA). The amount of compound remaining in the supernatant was quantified by LC/MS/MS using a Waters Xevo TQ MS (electrospray positive mode) coupled to a Waters Aquity® UPLC (BEH column, C18). Propafenone was used as the internal standard. GraphPad® Prism v 5.04 was used for nonlinear fitting of time course data to generate t1/2 values.

[6] = phosphate buffer with 2% DMSO, aqueous buffer, kinetic from dmso stock

Row | Structure (SMILES) | solubility kinetic at 90 min [1, 6] | IC50 [2] | IC50 [3] | Mouse PPB (% free) [4] | half-life [5] | Mic. Ctrl. Mouse % 60 min [5] | solubility kinetic at 90 min [1]
1 | O=C(Cc1ccc(NC(=O)c2cccc(Cl)n2)cc1)NCc1ccccc1 [Compound 4n, N-(4-(2-(benzylamino)-2-oxoethyl)phenyl)-6-chloropicolinamide] | 2.6 µM (≈ 0.988 µg/mL) | 250 nM | 270 ± 30 nM | Unstable | 3.1 min | 5.0% | 
2 | O=C(Cc1ccc(NC(=O)c2cccc(Cl)c2)cc1)NCc1ccccc1 [Compound 4e, N-(4-(2-(benzylamino)-2-oxoethyl)phenyl)-3-chlorobenzamide] | < 2 µM | 7410 ± 2800 nM | > 20000 nM | 0.8 % free | > 60 min | 73% | < 2.0 µM
